# Measurements taken from US12091426B2, “Bifunctional degraders of hematopoietic progenitor kinase and therapeutic uses thereof” (Nurix Therapeutics, Inc., priority 2021, dated 2024).
# Biological target: T1, HPK1 (Homo sapiens, UniProt Q92918)
# T1 construct: A HiBiT tag was introduced by CRISPR on the N terminus of HPK1 in Jurkat cells; host or cells: Jurkat cells (ATCC TIB-152), monoclonal line with CRISPR knock-in of HiBiT at the endogenous HPK1 locus
# Assay: HPK1 Cellular HiBit Degradation Assay
# Assay type: cell-based
# Conditions: HiBiT HPK1 Jurkat cells, 24 hrs; for DC50: concentration at which 50% of HPK1 was remaining, read-out: DC50 Category; for Dmax: Jurkat, maximum degradation vs DMSO vehicle control, read-out: Dmax Category
# Summary of the method: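 Jurkat cells with CRISPR N-terminal HiBiT-tagged endogenous HPK1 treated 24 h at 37 °C with 11-point, 3.16-fold dilutions (10 uM to 0.1 nM final). HiBiT lytic luminescence gives % HPK1 remaining versus DMSO, with parental cells as background. Four-parameter fit yields DC50; Dmax = 100 minus lowest % remaining.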
# T1 sequence (Q92918 whole entry): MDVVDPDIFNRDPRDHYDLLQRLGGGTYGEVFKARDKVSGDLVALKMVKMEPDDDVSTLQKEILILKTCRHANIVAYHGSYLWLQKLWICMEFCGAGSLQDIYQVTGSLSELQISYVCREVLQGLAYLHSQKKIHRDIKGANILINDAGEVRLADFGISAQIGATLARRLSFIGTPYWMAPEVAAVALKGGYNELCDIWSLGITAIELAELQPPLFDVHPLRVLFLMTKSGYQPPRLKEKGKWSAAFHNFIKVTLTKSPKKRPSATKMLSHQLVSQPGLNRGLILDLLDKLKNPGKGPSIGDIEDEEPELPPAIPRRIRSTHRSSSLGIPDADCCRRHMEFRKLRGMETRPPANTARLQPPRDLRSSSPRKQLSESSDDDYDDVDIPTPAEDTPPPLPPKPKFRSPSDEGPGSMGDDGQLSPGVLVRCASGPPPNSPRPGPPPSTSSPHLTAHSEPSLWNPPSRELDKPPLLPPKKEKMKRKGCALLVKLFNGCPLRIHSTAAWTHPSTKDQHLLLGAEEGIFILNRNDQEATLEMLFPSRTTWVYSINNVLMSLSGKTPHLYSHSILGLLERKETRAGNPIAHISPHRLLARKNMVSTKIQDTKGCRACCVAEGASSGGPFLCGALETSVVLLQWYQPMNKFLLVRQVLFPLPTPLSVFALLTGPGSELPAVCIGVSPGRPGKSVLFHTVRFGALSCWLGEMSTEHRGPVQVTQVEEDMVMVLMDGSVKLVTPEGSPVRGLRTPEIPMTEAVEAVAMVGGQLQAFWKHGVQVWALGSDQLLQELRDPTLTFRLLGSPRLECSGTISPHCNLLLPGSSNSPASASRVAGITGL
SMILES,DC50 [nM],Dmax [%]
"CC(C)n1cnc2cc(-c3ccc4c(c3)N([C@H]3C[C@@H](N5CCCCC5)C3)C(=O)C43CCN(C(=O)C4CCN(C(=O)[C@H]5CC[C@H](C(=O)N6CCc7cc(C8CCC(=O)NC8=O)ccc7C6)CC5)CC4)CC3)nc(Nc3ccccc3F)c21 (stereo partly drawn) [Example 48, 3-(2-((1R,4R)-4-(4-(6-(4-((2-fluorophenyl)amino)-3-isopropyl-3H-imidazo[4,5-c]pyridin-6-yl)-2-oxo-1-((1S,3S)-3-(piperidin-1-yl)cyclobutyl)spiro[indoline-3,4′-piperidine]-1′-carbonyl)piperidine-1-carbonyl)cyclohexane-1-carbonyl)-1,2,3,4-tetrahydroisoquinolin-6-yl)piperidine-2,6-dione]",< 100,70 to 85
"CC(C)n1cnc2cc(-c3ccc4c(c3)N([C@H]3C[C@@H](N5CCCCC5)C3)C(=O)C43CCN(C(=O)C4CCN(C(=O)[C@H]5CC[C@H](C(=O)N6CCc7cc(N8CCC(=O)NC8=O)ccc7C6)CC5)CC4)CC3)nc(Nc3ccccc3F)c21 [Example 49, 1-{2-[(1R,4R)-4-{4-[(6-{4-[(2-fluorophenyl)amino]-3-(propan-2-yl)-3H-imidazo[4,5-c]pyridin-6-yl}-2-oxo-1-[(1S,3S)-3-(piperidin-1-yl)cyclobutyl]-1,2-dihydrospiro[indole-3,4′-piperidin]-1′-yl)carbonyl]piperidine-1-carbonyl}cyclohexanecarbonyl]-1,2,3,4-tetrahydroisoquinolin-6-yl}-1,3-diazinane-2,4-dione]",100 to 500,50 to 70
"CC(C)n1cnc2cc(-c3ccc4c(c3)N([C@H]3C[C@@H](N5CCCCC5)C3)C(=O)C43CCN(C(=O)C4CCN(C(=O)C5CCN(c6ccc(C7CCC(=O)NC7=O)cc6)CC5)CC4)CC3)nc(NC3CC3)c21 (stereo partly drawn) [Example 66, 3-(4-(4-(4-(6-(4-(cyclopropylamino)-3-isopropyl-3H-imidazo[4,5-c]pyridin-6-yl)-2-oxo-1-((1S,3S)-3-(piperidin-1-yl)cyclobutyl)spiro[indoline-3,4′-piperidine]-1′-carbonyl)piperidine-1-carbonyl)piperidin-1-yl)phenyl)piperidine-2,6-dione]",< 100,70 to 85
"CC(C)n1cnc2cc(-c3ccc4c(c3)N([C@H]3C[C@@H](N5CCCCC5)C3)C(=O)C43CCN(C(=O)C4CCN(C(=O)C5CCN(c6ccc(C7CCC(=O)NC7=O)cc6)CC5)CC4)CC3)nc(Nc3ccncc3F)c21 (stereo partly drawn) [Example 68, 3-(4-(4-(4-(6-(4-((3-fluoropyridin-4-yl)amino)-3-isopropyl-3H-imidazo[4,5-c]pyridin-6-yl)-2-oxo-1-((1S,3S)-3-(piperidin-1-yl)cyclobutyl)spiro[indoline-3,4′-piperidine]-1′-carbonyl)piperidine-1-carbonyl)piperidin-1-yl)phenyl)piperidine-2,6-dione]",< 100,70 to 85
"CC(C)n1cnc2cc(-c3ccc4c(c3)N([C@H]3C[C@@H](N5CCCCC5)C3)C(=O)C43CCN(C(=O)C4CCN(C(=O)C5CCN(c6ccc(N7CCC(=O)NC7=O)cc6)CC5)CC4)CC3)nc(NC3CC3)c21 [Example 69, 1-(4-{4-[4-({6-[4-(cyclopropylamino)-3-(propan-2-yl)-3h-imidazo[4,5-c]pyridin-6-yl]-2-oxo-1-[(1S,3S)-3-(piperidin-1-yl)cyclobutyl]-1,2-dihydrospiro[indole-3,4′-piperidin]-1′-yl}carbonyl)piperidine-1-carbonyl]piperidin-1-yl}phenyl)-1,3-diazinane-2,4-dione]",< 100,70 to 85
"CC(C)n1cnc2cc(-c3ccc4c(c3)N([C@H]3C[C@@H](N5CCCCC5)C3)C(=O)C43CCN(C(=O)C4CCN(C(=O)C5CCN(c6ccc(N7CCC(=O)NC7=O)cc6)CC5)CC4)CC3)nc(Nc3ccccc3F)c21 [Example 70, 1-[4-(4-{4-[(6-{4-[(2-fluorophenyl)amino]-3-(propan-2-yl)-3H-imidazo[4,5-c]pyridin-6-yl}-2-oxo-1-[(1S,3S)-3-(piperidin-1-yl)cyclobutyl]-1,2-dihydrospiro[indole-3,4′-piperidin]-1′-yl)carbonyl]piperidine-1-carbonyl}piperidin-1-yl)phenyl]-1,3-diazinane-2,4-dione]",< 100,> 85
